This assay addresses recombinant human NK3 receptor (Homo sapiens (Human), UniProt P29371). Description: biochemical. Particulars: read-out: Data Ki (hNK-3 receptor affinity). It is filed as binding. The procedure: [^3H]SR142801 Competition Binding Assay
hNK3 receptor binding experiment were performed using [^3H]SR142801 (Catalog No. TRK1035, specific activity: 74.0 Ci/mmol, Amersham, GE Healthcare UK limited, Buckinghamshire, UK) and membrane isolated from HEK293 cells transiently expressing recombinant human NK3 receptor. After thawing, the membrane homogenates were centrifuged at 48,000×g for […] at 4° C., the pellets were resuspended in the 50 mM Tris-HCl, 4 mM MnCl2, 1 μM phosphoramidon, 0.1% BSA binding buffer at pH 7.4 to a final assay concentration of 5 μg protein/well. For inhibition experiments, membranes were incubated with [^3H]SR142801 at a concentration equal to KD value of radioligand and 10 concentrations of the inhibitory compound (0.0003-10 μM) (in a total reaction volume of 500 μl) for 75 min at room temperature (RT). At the end of the incubation, membranes were filtered onto unitfilter (96-well white microplate with bonded GF/C filter preincubated 1 h in 0.3% PEI+0.3% BSA, Packard BioScience, Meriden, Conn.) with a Filtermate 196 harvester (Packard BioScience) and washed 4 times with ice-cold 50 mM Tris-HCl, pH 7.4 buffer. Nonspecific binding was measured in the presence of 10 μM SB222200 for both radioligands. The radioactivity on the filter was counted (5 min) on a Packard Top-count microplate scintillation counter with quenching correction after addition of 45 μl of microscint 40 (Canberra Packard S.A., Zürich, Switzerland) and shaking for 1 h. Inhibition curves were fitted according to the Hill equation: y=100/(1+(x/IC50)^nH), where nH=slope factor using Excel-fit 4 software (Microsoft). IC50 values were derived from the inhibition curve and the affinity constant (Ki) values were calculated using the Cheng-Prussoff equation Ki=IC50/(1+[L]/KD) where [L] is the concentration of radioligand and KD is its dissociation constant at the receptor, derived from the saturation isotherm. All experiments were performed in duplicate and the mean±standard error (SEM) of the individual Ki values was calculated.

Setting [1] is: [3H]SR142801, membranes of HEK293 cells transiently expressing recombinant human NK3 receptor.

Read-outs that look alike come from different tables or passages of the source.

recombinant human NK3 receptor, sequence (P29371 whole entry): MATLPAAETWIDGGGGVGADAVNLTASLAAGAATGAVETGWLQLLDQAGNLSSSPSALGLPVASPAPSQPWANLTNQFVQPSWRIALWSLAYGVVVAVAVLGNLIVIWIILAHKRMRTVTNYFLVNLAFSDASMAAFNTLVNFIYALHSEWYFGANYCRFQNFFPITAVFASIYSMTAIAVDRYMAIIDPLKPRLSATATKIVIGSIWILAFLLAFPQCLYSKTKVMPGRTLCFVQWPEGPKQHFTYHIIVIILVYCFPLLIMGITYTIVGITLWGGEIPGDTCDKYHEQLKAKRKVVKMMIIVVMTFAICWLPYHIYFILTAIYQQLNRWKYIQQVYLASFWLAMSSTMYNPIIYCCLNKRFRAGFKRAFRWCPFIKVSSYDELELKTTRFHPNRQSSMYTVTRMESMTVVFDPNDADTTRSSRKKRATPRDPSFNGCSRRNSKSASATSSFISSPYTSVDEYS

For orientation: Ki means a dissociation constant, usually derived from enzyme kinetics or from competition with a known ligand. With `CCN(C(=O)Oc1ccc(F)cc1)[C@@H]1CN(C(=O)C2CCN(c3ccc(S(C)(=O)=O)cn3)CC2)C[C@H]1c1ccc(Cl)cc1` [Example 16, [(3S,4R)-4-(4-Chloro-phenyl)-1-(5′-methanesulfonyl-3,4,5,6-tetrahydro-2H-[1,2′]bipyridinyl-4-carbonyl)-pyrrolidin-3-yl]-ethyl-carbamic acid 4-fluoro-phenyl ester], the inhibition constant Ki under setting [1] turned out to be 2 nM.
The same measure, in the same setting: to `CCN(C(=O)Oc1ccc(F)cc1)[C@@H]1CN(C(=O)C2CCC(=O)N(C(C)C)C2)C[C@H]1c1ccc(Cl)c(F)c1` (stereo partly drawn) [Example 105, [(3S,4R)-4-(4-Chloro-3-fluoro-phenyl)-1-(1-isopropyl-6-oxo-piperidine-3-carbonyl)-pyrrolidin-3-yl]-ethyl-carbamic acid 4-fluoro-phenyl ester] belongs 31.2 nM.
Consider `CCN(C(=O)Oc1ccc(F)cc1)[C@@H]1CN(C(=O)C2CCN(c3ccc(F)cn3)CC2)C[C@H]1c1ccc(Cl)c(Cl)c1` [Example 112, [(3S,4R)-4-(3,4-Dichloro-phenyl)-1-(5′-fluoro-3,4,5,6-tetrahydro-2H-[1,2′]bipyridinyl-4-carbonyl)-pyrrolidin-3-yl]-ethyl-carbamic acid 4-fluoro-phenyl ester], for which the Ki worked out at 0.8 nM.
Same read-out and setting: for `CCN(C(=O)Oc1ccc(F)cc1)[C@@H]1CN(C(=O)C2CCN(c3ccc(C(C)O)cn3)CC2)C[C@H]1c1ccc(Cl)cc1` (stereo partly drawn) [Example 108, {(3S,4R)-4-(4-Chloro-phenyl)-1-[5′-(1-hydroxy-ethyl)-3,4,5,6-tetrahydro-2H-[1,2]bipyridinyl-4-carbonyl]-pyrrolidin-3-yl}-ethyl-carbamic acid 4-fluoro-phenyl ester] the value was 4.7 nM.
Take `CCN(C(=O)Oc1ccc(F)cc1)[C@@H]1CN(C(=O)C2CCN(C(=O)C3CC(F)C3)CC2)C[C@H]1c1ccc(Cl)c(F)c1` (stereo partly drawn) [Example 69, {(3S,4R)-4-(4-Chloro-3-fluoro-phenyl)-1-[1-(3-fluoro-cyclobutanecarbonyl)-piperidine-4-carbonyl]-pyrrolidin-3-yl}-ethyl-carbamic acid 4-fluoro-phenyl ester]: under setting [1], the Ki stood at 2 nM.
On the same count and under the same terms, for `CCN(C(=O)Oc1ccc(F)cc1)[C@H]1CN(C(=O)C2CCN(c3ccc(C#N)nn3)CC2)C[C@@H]1c1ccc(Cl)cc1` [Example 12, {(3R,4S)-4-(4-Chloro-phenyl)-1-[1-(6-cyano-pyridazin-3-yl)-piperidine-4-carbonyl]-pyrrolidin-3-yl}-ethyl-carbamic acid 4-fluoro-phenyl ester] the value was 23 nM.
As to `CC(C)N(C(=O)Oc1ccc(F)cc1)[C@@H]1CN(C(=O)C2CCN(c3cnc(C#N)cn3)CC2)C[C@H]1c1ccc(Cl)cc1` [Example 27, {(3S,4R)-4-(4-Chloro-phenyl)-1-[1-(5-cyano-pyrazin-2-yl)-piperidine-4-carbonyl]-pyrrolidin-3-yl}-isopropyl-carbamic acid 4-fluoro-phenyl ester], the Ki under setting [1] turned out to be 47 nM.
Still for that read-out and setting: for `CCN(C(=O)Oc1ccc(F)cc1)[C@@H]1CN(C(=O)C2CCN(c3ccc(C(C)=O)cn3)CC2)C[C@H]1c1ccc(Cl)c(F)c1` [Example 59, [(3S,4R)-1-(5′-Acetyl-3,4,5,6-tetrahydro-2H-[1,2′]bipyridinyl-4-carbonyl)-4-(4-chloro-3-fluoro-phenyl)-pyrrolidin-3-yl]-ethyl-carbamic acid 4-fluoro-phenyl ester] the value was 0.5 nM; for `CCN(C(=O)Oc1ccc(F)cc1)[C@@H]1CN(C(=O)C2CCN(C(=O)C3CC3(F)F)CC2)C[C@H]1c1ccc(Cl)c(F)c1` (stereo partly drawn) [Example 70, {(3S,4R)-4-(4-Chloro-3-fluoro-phenyl)-1-[1-(2,2-difluoro-cyclopropanecarbonyl)-piperidine-4-carbonyl]-pyrrolidin-3-yl}-ethyl-carbamic acid 4-fluoro-phenyl ester], 4 nM.
The same measure, in the same setting: to `CCN(C(=O)Oc1ccc(F)cc1)[C@@H]1CN(C(=O)C2CCN(c3ccc(C#N)cn3)CC2)C[C@H]1c1ccc(Cl)cc1` [Example 21, [(3S,4R)-4-(4-Chloro-phenyl)-1-(5′-cyano-3,4,5,6-tetrahydro-2H-[1,2′]bipyridinyl-4-carbonyl)-pyrrolidin-3-yl]-ethyl-carbamic acid 4-fluoro-phenyl ester] belongs 2 nM.
In the case of `CCN(C(=O)Oc1ccc(F)cc1)[C@@H]1CN(C(=O)C2CCN(C(=O)C3CC(F)C3)CC2)C[C@H]1c1ccc(Cl)cc1` (stereo partly drawn) [Example 89, {(3S,4R)-4-(4-Chloro-phenyl)-1-[1-(3-fluoro-cyclobutanecarbonyl)-piperidine-4-carbonyl]-pyrrolidin-3-yl}-ethyl-carbamic acid 4-fluoro-phenyl ester], the inhibition constant Ki is 3.3 nM.
`CCN(C(=O)Oc1ccc(F)cc1)[C@@H]1CN(C(=O)C2CCN(C(=O)C3(C)COC3)CC2)C[C@H]1c1ccc(Cl)c(F)c1` [Example 65, {(3S,4R)-4-(4-Chloro-3-fluoro-phenyl)-1-[1-(3-methyl-oxetane-3-carbonyl)-piperidine-4-carbonyl]-pyrrolidin-3-yl}-ethyl-carbamic acid 4-fluoro-phenyl ester]: under setting [1], the Ki came out at 3 nM.
On to `CCN(C(=O)Oc1ccc(F)cc1)[C@@H]1CN(C(=O)C2CCN(C(=O)C3(C)CC3)CC2)C[C@H]1c1ccc(Cl)c(Cl)c1` [Example 5, {(3S,4R)-4-(3,4-Dichloro-phenyl)-1-[1-(1-methyl-cyclopropanecarbonyl)-piperidine-4-carbonyl]-pyrrolidin-3-yl}-ethyl-carbamic acid 4-fluoro-phenyl ester], for which the Ki was 2 nM.
Consider `CCN(C(=O)Oc1ccc(F)cc1)[C@@H]1CN(C(=O)C2CCN(C(C)=O)CC2)C[C@H]1c1ccc(Cl)cc1` [Example 82, [(3S,4R)-1-(1-Acetyl-piperidine-4-carbonyl)-4-(4-chloro-phenyl)-pyrrolidin-3-yl]-ethyl-carbamic acid 4-fluoro-phenyl ester], for which the inhibition constant Ki under setting [1] turned out to be 8.2 nM.
Consider `CCN(C(=O)Oc1ccc(F)cc1)[C@@H]1CN(C(=O)C2CCN(c3ccc(C)cn3)CC2)C[C@H]1c1ccc(F)c(F)c1` [Example 55, [(3S,4R)-4-(3,4-Difluoro-phenyl)-1-(5′-methyl-3,4,5,6-tetrahydro-2H-[1,2′]bipyridinyl-4-carbonyl)-pyrrolidin-3-yl]-ethyl-carbamic acid 4-fluoro-phenyl ester], for which the Ki was 9 nM.
For the compound `CCN(C(=O)Oc1ccc(F)cc1)[C@@H]1CN(C(=O)C2CCN(C(=O)c3ccc(F)cn3)CC2)C[C@H]1c1ccc(Cl)c(F)c1` [Example 75, {(3S,4R)-4-(4-Chloro-3-fluoro-phenyl)-1-[1-(5-fluoro-pyridine-2-carbonyl)-piperidine-4-carbonyl]-pyrrolidin-3-yl}-ethyl-carbamic acid 4-fluoro-phenyl ester], the inhibitory constant (Ki) under setting [1] was determined as 3 nM.
On to `CCN(C(=O)Oc1ccc(F)cc1)[C@@H]1CN(C(=O)C2CCN(C(=O)C3(C(F)(F)F)CCC3)CC2)C[C@H]1c1ccc(Cl)cc1` [Example 92, {(3S,4R)-4-(4-Chloro-phenyl)-1-[1-(1-trifluoromethyl-cyclobutanecarbonyl)-piperidine-4-carbonyl]-pyrrolidin-3-yl}-ethyl-carbamic acid 4-fluoro-phenyl ester], for which, under setting [1], the Ki was found to be 6.6 nM.
Same read-out and setting: for `CCN(C(=O)Oc1ccc(F)cc1)[C@@H]1CN(C(=O)C2CCN(C(=O)C3(C#N)CC3)CC2)C[C@H]1c1ccc(Cl)cc1` [Example 94, {(3S,4R)-4-(4-Chloro-phenyl)-1-[1-(1-cyano-cyclopropanecarbonyl)-piperidine-4-carbonyl]-pyrrolidin-3-yl}-ethyl-carbamic acid 4-fluoro-phenyl ester] the value was 7.8 nM.

(Values after patent publication US9346786B2, “Pyrrolidine compounds” (Hoffmann-La Roche Inc., priority 2009, dated 2016).)
